This test relates to pro-fibrotic gene expression (COL1A1) in LX-2 cells. Nature of the test: qRT-PCR of pro-fibrotic gene expression in LX-2 cells. As to conditions: 500 nM, 16 hr, equimolar doses, absence or presence of TGFβ1 (5 ng/ml), compared with JQ1.

This note sets out measurements from patent US20180325914A1, “INCREASING STORAGE OF VITAMIN A, VITAMIN D AND/OR LIPIDS” (Salk Institute for Biological Studies, priority 2014, published 2018).

Each structure is given as a SMILES string.

With `COc1ccccc1S(=O)(=O)Nc1ccc2c(c1)CN(C)C(=O)N2` [PFI-1], the “inhibitory effects on the expression of a wide range of pro-fibrotic genes” value is on record as “comparable inhibitory effects to JQ1”. As for `COc1cc2c(cc1-c1c(C)noc1C)ncc1[nH]c(=O)n([C@H](C)c3ccccn3)c12` [I-BET-151], the “inhibitory effects on the expression of a wide range of pro-fibrotic genes” value is reported as “comparable inhibitory effects to JQ1”.
